# Earlier results as cited in patent US20080019975A1, “Novel Regimens for Treating Diseases and Disorders” (BioAssets Development Corporation, priority 2006, published 2008).
# Tested on: sciatica patients
# Settings: IV administration, blinded trial versus placebo saline infusion
substance,measurement,value
infliximab,difference between patients treated with the drug versus placebo saline infusion,failed to show a difference
